{
  "source": "PubChem BioAssay AID1259333",
  "about": "(Broad Institute, 2017)",
  "note": "The source made the active and inactive calls. No rule for the calls is given here; tested in parental BL2 cells.",
  "data": [
    {"test": "cell cytotoxicity, dose response, cytotoxicity control, CellTiter-Glo (AID 1259333);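 also: 0% = vehicle neutral controls and -100% = reference inhibitor positive controls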", "conditions": "cytotoxicity, CellTiter-Glo ATP luminescence; at 3.5 µM (top of the series)", "values": [
      {"smiles": "O=C(Nc1ccc(C(F)(F)F)cc1)Nc1ccc2c(c1)[C@H]1C[C@@H](CC(=O)N3CCc4ccccc4C3)O[C@@H](CO)[C@H]1O2", "activity change, negative = cytotoxicity": "30.5% (inactive)"},
      {"smiles": "O=C1C=CC(=O)c2c(O)c(N3CCN(CCOCCO)CC3)c(Br)c(O)c21", "activity change, negative = cytotoxicity": "104% (inactive)"}
    ]},
    {"test": "cell cytotoxicity, dose response, cytotoxicity control, CellTiter-Glo (AID 1259333);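 also: 0% = vehicle neutral controls and -100% = reference inhibitor positive controls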", "conditions": "cytotoxicity, CellTiter-Glo ATP luminescence; at 10 µM (top of the series)", "values": [
      {"smiles": "C[C@@H]1CN([C@@H](C)CO)C(=O)c2ccccc2-c2ccccc2CO[C@@H]1CN(C)C(=O)c1cc(Cl)cc(Cl)c1", "activity change, negative = cytotoxicity": "38.8% (inactive)"},
      {"smiles": "CC(=O)OC1CCC2(C)C(CCC3C4CC=C(C(C)=O)C4(C)OC(=O)CC32)C1", "note": "(centres undefined)", "activity change, negative = cytotoxicity": "133% (inactive)"},
      {"smiles": "O=C(CCN1CCC(c2ccccc2)C1)c1ccc2c(c1)OCCO2", "note": "(centres undefined)", "activity change, negative = cytotoxicity": "28% (inactive)"},
      {"smiles": "Cc1ccccc1S(=O)(=O)N1C[C@@H]2N[C@H](C1)C2c1ccc(-c2cccc(C#N)c2)cc1", "note": "(some centres undefined)", "activity change, negative = cytotoxicity": "54.5% (inactive)"},
      {"smiles": "N#C[C@H]1[C@@H](c2ccc(C#CC3CCCCC3)cc2)[C@H](CO)N1C(=O)Nc1ccc(F)cc1", "activity change, negative = cytotoxicity": "22.4% (inactive)"},
      {"smiles": "Cc1ccc(C2(C)NC(=O)N(CC(=O)Nc3cccnc3Cl)C2=O)cc1", "note": "(centres undefined)", "activity change, negative = cytotoxicity": "21.9% (inactive)"},
      {"smiles": "COc1ccc2c3c([nH]c2c1)[C@H](CO)N(C(=O)Nc1cccc(F)c1)CC31CCN(S(=O)(=O)c2cccc(C)c2)CC1", "activity change, negative = cytotoxicity": "35% (inactive)"},
      {"smiles": "Cc1ccc(P(=O)(CSC(=N)N)c2ccc(C)cc2)cc1", "activity change, negative = cytotoxicity": "-36.8% (inactive)"},
      {"smiles": "O=C(CNCCO)N1N=C(c2cccs2)CC1c1cccs1", "note": "(centres undefined)", "activity change, negative = cytotoxicity": "18.9% (inactive)"},
      {"smiles": "C[C@H]1CN([C@@H](C)CO)C(=O)c2ccccc2-c2ccccc2CO[C@H]1CN(C)C(=O)[C@@H](Cc1ccccc1)N(C)C", "activity change, negative = cytotoxicity": "83.4% (inactive)"},
      {"smiles": "CCOC(=O)c1c(SCCN2CCCC2)n(-c2ccccc2)c(=S)n(-c2ccccc2)c1=O", "activity change, negative = cytotoxicity": "63.8% (inactive)"},
      {"smiles": "CCCCC1C(=O)NC(=S)N(C)C1=O", "note": "(centres undefined)", "activity change, negative = cytotoxicity": "33.7% (inactive)"},
      {"smiles": "C[C@H]1CN([C@@H](C)CO)C(=O)c2cccc(NC(=O)Nc3ccc(F)cc3)c2O[C@H]1CN(C)S(=O)(=O)c1ccc(Cl)cc1", "activity change, negative = cytotoxicity": "55% (inactive)"},
      {"smiles": "COc1cccc(/C=N/Nc2ccc(C(=O)O)cc2)c1O", "activity change, negative = cytotoxicity": "5.24% (inactive)"},
      {"smiles": "COc1ccc(C(=O)/C=C/C(=O)N(CC(=O)NC2CCCCC2)Cc2ccc(F)cc2)c(O)c1", "activity change, negative = cytotoxicity": "46.2% (inactive)"},
      {"smiles": "N#C[C@H]1[C@@H](c2ccccc2-c2ccccc2)[C@@H](CO)N1C(=O)NC1CCCC1", "activity change, negative = cytotoxicity": "-17.1% (inactive)"},
      {"smiles": "O=C(/C=C/c1cccs1)c1ccc(N2CCOCC2)cc1", "activity change, negative = cytotoxicity": "23.6% (inactive)"},
      {"smiles": "N#C[C@@H]1[C@@H](c2ccccc2)[C@H](CO)N1C(=O)CN1CCOCC1", "activity change, negative = cytotoxicity": "77.6% (inactive)"},
      {"smiles": "COc1ccccc1NC(c1cccnc1)c1ccc2cccnc2c1O", "note": "(centres undefined)", "activity change, negative = cytotoxicity": "123% (inactive)"},
      {"smiles": "N#C[C@@H]1[C@H](c2ccc(C#Cc3ccc(F)cc3)cc2)[C@@H](CO)N1C(=O)C1CCC1", "activity change, negative = cytotoxicity": "5.33% (inactive)"},
      {"smiles": "CC12CC[C@H]3[C@@H](CCC4(O)C[C@H](O)CCC34/C=N/NC(=O)Cc3ccccc3)C1(O)CCC2C1=CC(=O)OC1", "note": "(some centres undefined)", "activity change, negative = cytotoxicity": "25% (inactive)"},
      {"smiles": "Cc1ccccc1-c1ccc2c(c1)O[C@@H](CN(C)C(=O)Nc1ccc(C(F)(F)F)cc1)[C@@H](C)CN([C@@H](C)CO)S2(=O)=O", "activity change, negative = cytotoxicity": "16.7% (inactive)"},
      {"smiles": "COc1ccc(C#Cc2ccc([C@H]3[C@H]4CN(C(=O)c5ccncc5)CCCCN4[C@H]3CO)cc2)cc1", "activity change, negative = cytotoxicity": "30.7% (inactive)"},
      {"smiles": "COc1cccc(S(=O)(=O)N(C)C[C@@H]2OCc3ccccc3-c3c(n(C)c4ccccc34)C(=O)N([C@H](C)CO)C[C@@H]2C)c1", "activity change, negative = cytotoxicity": "41.8% (inactive)"},
      {"smiles": "Nc1nc(=O)c2ccccc2s1", "activity change, negative = cytotoxicity": "19.7% (inactive)"},
      {"smiles": "c1ccc(-c2ccc(-c3ccccn3)nn2)nc1", "activity change, negative = cytotoxicity": "-10.2% (inactive)"},
      {"smiles": "COc1ccc(-c2cnc3c(c2)C(=O)N([C@H](C)CO)C[C@@H](C)[C@@H](CN(C)C(=O)Nc2c(C)noc2C)O3)cc1", "activity change, negative = cytotoxicity": "49.3% (inactive)"},
      {"smiles": "O=C(C1CC1)N1C[C@@H]2N[C@H](C1)C2c1ccc(-c2cccc(F)c2)cc1", "note": "(some centres undefined)", "activity change, negative = cytotoxicity": "-17.6% (inactive)"},
      {"smiles": "C=C1C(=O)OC2CC1C(O)CC(C)=CCCC(C)=CC(O)CC2C", "note": "(centres undefined)", "activity change, negative = cytotoxicity": "35.5% (inactive)"},
      {"smiles": "N#CC(C#N)=NNc1cccc(Cl)c1", "activity change, negative = cytotoxicity": "69.4% (inactive)"},
      {"smiles": "CC(=NNc1ccc2ccccc2n1)c1ccccc1O", "activity change, negative = cytotoxicity": "-29.4% (inactive)"},
      {"smiles": "O=C(Nc1ccc2c(c1)OCCO2)C1CCCC1", "activity change, negative = cytotoxicity": "9.1% (inactive)"},
      {"smiles": "Fc1ccccc1/C=C1\\CCCC2=C1Nc1nnnn1C2c1ccccc1F", "note": "(centres undefined)", "activity change, negative = cytotoxicity": "12.3% (inactive)"},
      {"smiles": "CCc1csc(N2[C@H](C#N)[C@H](c3ccc(C#Cc4ccc(F)cc4)cc3)[C@H]2CO)n1", "activity change, negative = cytotoxicity": "30% (inactive)"},
      {"smiles": "CCC(=O)NC(c1ccccc1OC)c1ccc2cccnc2c1O", "note": "(centres undefined)", "activity change, negative = cytotoxicity": "40.2% (inactive)"},
      {"smiles": "CC12CN3CC(C)(CN(C1)C3c1ccc3c(c1)OCO3)C2=O", "note": "(centres undefined)", "activity change, negative = cytotoxicity": "48.6% (inactive)"},
      {"smiles": "CS(=O)(=O)c1ccc(C(=O)OCC(=O)NC(=O)C2COc3ccccc3O2)cc1[N+](=O)[O-]", "note": "(centres undefined)", "activity change, negative = cytotoxicity": "25.3% (inactive)"},
      {"smiles": "CCc1cnc(N2[C@H](C#N)[C@@H](c3ccc(C#CC(C)C)cc3)[C@H]2CO)s1", "activity change, negative = cytotoxicity": "10.7% (inactive)"},
      {"smiles": "O=C(CNC(=O)c1ccco1)Nc1ccc2c(c1)OCCO2", "activity change, negative = cytotoxicity": "-6.17% (inactive)"},
      {"smiles": "O=C(C1CCOCC1)N1CC(=O)N2[C@H](C1)[C@@H](c1ccc(C#CCc3ccccc3)cc1)[C@@H]2CO", "activity change, negative = cytotoxicity": "47.9% (inactive)"},
      {"smiles": "CC(=O)OCC(=O)C1(O)CCC2C3CCC4=CC(=O)CCC4(C)C3(Cl)C(O)CC21C", "note": "(centres undefined)", "activity change, negative = cytotoxicity": "25.5% (inactive)"},
      {"smiles": "O=c1cc(-c2ccccc2)oc2cc(O)cc(O)c12", "activity change, negative = cytotoxicity": "52.1% (inactive)"},
      {"smiles": "C[C@H](CO)N1C[C@H](C)[C@@H](CN(C)Cc2ccc(Cl)c(Cl)c2)OCCCC[C@H](C)Oc2ccc(NS(=O)(=O)c3cccs3)cc2C1=O", "activity change, negative = cytotoxicity": "9.11% (inactive)"},
      {"smiles": "CO[C@@H](CN(C)S(=O)(=O)c1ccc(Cl)cc1)[C@H](C)CN(Cc1ccccc1Cl)[C@@H](C)CO", "activity change, negative = cytotoxicity": "1.13% (inactive)"},
      {"smiles": "Nc1ccc(-c2cccc3c(=O)cc(N4CCOCC4)oc23)cc1", "activity change, negative = cytotoxicity": "15.1% (inactive)"},
      {"smiles": "CC(=O)c1cc(-c2ccccc2)n(CC(=O)NCc2cccs2)c1C", "activity change, negative = cytotoxicity": "2.3% (inactive)"},
      {"smiles": "C[C@@H]1CN([C@H](C)CO)C(=O)c2cc(NS(=O)(=O)c3cccs3)ccc2O[C@@H](C)CCCCO[C@H]1CN(C)Cc1ccc(Cl)c(Cl)c1", "activity change, negative = cytotoxicity": "16.1% (inactive)"},
      {"smiles": "O=C1C(=Cc2ccccc2[N+](=O)[O-])Cc2ccccc21", "activity change, negative = cytotoxicity": "161% (inactive)"},
      {"smiles": "COc1cccc(OC)c1OCCNCC1COc2ccccc2O1", "note": "(centres undefined)", "activity change, negative = cytotoxicity": "48.7% (inactive)"},
      {"smiles": "Cn1c(CO)nc2cc(N)ccc21", "activity change, negative = cytotoxicity": "34.6% (inactive)"},
      {"smiles": "C[C@H](CO)N1C[C@H](C)[C@H](CN(C)Cc2ccc(Oc3ccccc3)cc2)OCc2ccccc2-c2ccccc2C1=O", "activity change, negative = cytotoxicity": "15.4% (inactive)"},
      {"smiles": "O=C(Nc1nc2ccccc2s1)c1ccc(OCC2CCCO2)cc1", "note": "(centres undefined)", "activity change, negative = cytotoxicity": "24.7% (inactive)"}
    ]}
  ]
}
